Here are results for 21 compounds from US12503475B2 (Centessa Pharmaceuticals (UK) Limited, priority 2020, dated 2025).

Read-outs that look alike come from different tables or passages of the source.

Broadly, the Emax is the size of the effect at its maximum, as opposed to the concentration needed.

The target of the assay is T1, human orexin type 2 receptor (hOX2R) (Homo sapiens, UniProt O43614).
T1 construct: expressed in transfected cells
T1 sequence (O43614 1-444): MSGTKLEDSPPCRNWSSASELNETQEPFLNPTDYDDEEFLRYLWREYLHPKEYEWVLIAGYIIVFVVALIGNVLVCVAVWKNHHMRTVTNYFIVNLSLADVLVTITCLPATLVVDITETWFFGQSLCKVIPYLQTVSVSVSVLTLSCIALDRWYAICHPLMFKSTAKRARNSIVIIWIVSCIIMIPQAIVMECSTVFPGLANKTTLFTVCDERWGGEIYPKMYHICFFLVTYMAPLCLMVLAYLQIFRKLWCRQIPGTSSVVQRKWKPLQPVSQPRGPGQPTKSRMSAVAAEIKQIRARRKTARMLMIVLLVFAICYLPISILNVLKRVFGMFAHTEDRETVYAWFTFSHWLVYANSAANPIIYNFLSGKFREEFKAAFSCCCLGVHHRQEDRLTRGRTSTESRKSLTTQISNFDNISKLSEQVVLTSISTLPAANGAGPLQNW
Briefly: Measurement of orexin type 2 receptor agonist activity (FLIPR calcium fluorescence). Type of assay: cell-based. The note with it: for EC50: read-out: hOx2 pEC50 (converted); for Emax: CHO, read-out: hOx2 Emax (%). In a few lines:
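Agonism was read as fluorescence in cells stably expressing human OX2R. E. is the response at 10 μM relative to orexin A as full agonist (100%).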

Where [1] appears, read: CHO cells expressing hOX2R, FLIPR calcium fluorescence.

On to `CC(C)(O)C(=O)N1CC2(CC2)[C@H](NS(=O)(=O)C(F)F)[C@@H]1Cc1cccc(-c2cc(F)cc(F)c2)c1F` [Compound 195, 1,1-difluoro-N-((6S,7S)-5-(2-hydroxy-2-methylpropanoyl)-6-((2,3′,5′-trifluoro-[1,1′-biphenyl]-3-yl)methyl)-5-azaspiro[2.4]heptan-7-yl)methanesulfonamide], for which, under setting [1], the EC50 is 1 to 10 nM and the Emax fell in the range of 90 to 100%.
Consider `O=C([C@H]1CCO1)N1CC2(CC2)[C@H](NS(=O)(=O)CF)[C@@H]1Cc1cccc(-c2cccc(C(F)F)c2)c1F` [Compound 196, N-((6S,7S)-6-((3′-(difluoromethyl)-2-fluoro-[1,1′-biphenyl]-3-yl)methyl)-5-((R)-oxetane-2-carbonyl)-5-azaspiro[2.4]heptan-7-yl)-1-fluoromethanesulfonamide], for which, under setting [1], the EC50 is 0.0794 to 1 nM and the Emax was in the range of 90 to 100%.
The corresponding values for `O=C([C@H]1CCO1)N1CC2(CC2)[C@H](NS(=O)(=O)CF)[C@@H]1Cc1cccc(-c2cccc(C(F)(F)F)c2)c1F` [Compound 197, 1-fluoro-N-((6S,7S)-6-((2-fluoro-3′-(trifluoromethyl)-[1,1′-biphenyl]-3-yl)methyl)-5-((R)-oxetane-2-carbonyl)-5-azaspiro[2.4]heptan-7-yl)methanesulfonamide] are 10 to 100 nM and 80 to 90%.
Take `O=C([C@@H](O)C(F)F)N1CC2(CC2)[C@H](NS(=O)(=O)C(F)F)[C@@H]1Cc1cccc(-c2ccccc2)c1F` [Compound 198, N-((6S,7S)-5-((R)-3,3-difluoro-2-hydroxypropanoyl)-6-((2-fluoro-[1,1′-biphenyl]-3-yl)methyl)-5-azaspiro[2.4]heptan-7-yl)-1,1-difluoromethanesulfonamide]: under setting [1], the EC50 is 1 to 10 nM and the Emax fell in the range of 90 to 100%.
Turning to `[2H]C([2H])([2H])c1cccc(-c2cccc(C[C@H]3[C@@H](NS(=O)(=O)C(F)F)C4(CC4)CN3C(=O)[C@H]3CCO3)c2F)c1` [Compound 199, 1,1-difluoro-N-((6S,7S)-6-((2-fluoro-3′-(methyl-d3)-[1,1′-biphenyl]-3-yl)methyl)-5-((R)-oxetane-2-carbonyl)-5-azaspiro[2.4]heptan-7-yl)methanesulfonamide], under setting [1], the EC50 was 0.0794 to 1 nM and the maximum response (Emax) is 90 to 100%.
As to `O=C(NCC(F)(F)F)N1CC2(CC2)[C@H](NS(=O)(=O)C(F)F)[C@@H]1Cc1cccc(-c2ccccc2)c1F` [Compound 200, (6S,7S)-7-((difluoromethyl)sulfonamido)-6-((2-fluoro-[1,1′-biphenyl]-3-yl)methyl)-N-(2,2,2-trifluoroethyl)-5-azaspiro[2.4]heptane-5-carboxamide], under setting [1], the EC50 is 1 to 10 nM and the Emax fell in the range of 90 to 100%.
Regarding `O=C([C@H]1C[C@@H](F)C1)N1CC2(CC2)[C@H](NS(=O)(=O)C(F)F)[C@@H]1Cc1cccc(-c2ccccc2)c1F` [Compound 201, 1,1-difluoro-N-((6S,7S)-6-((2-fluoro-[1,1′-biphenyl]-3-yl)methyl)-5-((1s,3s)-3-fluorocyclobutane-1-carbonyl)-5-azaspiro[2.4]heptan-7-yl)methanesulfonamide], under setting [1], the EC50 is 1 to 10 nM and the Emax lay in the range of 90 to 100%.
Turning to `C[C@]1(C(=O)N2CC3(CC3)[C@H](NS(=O)(=O)CF)[C@@H]2Cc2cccc(-c3ccccc3)c2F)CCO1` [Compound 202, 1-fluoro-N-((6S,7S)-6-((2-fluoro-[1,1′-biphenyl]-3-yl)methyl)-5-((R)-2-methyloxetane-2-carbonyl)-5-azaspiro[2.4]heptan-7-yl)methanesulfonamide], under setting [1], the EC50 was 1 to 10 nM and the Emax is 90 to 100%.
As to `C[C@@]1(C(=O)N2CC3(CC3)[C@H](NS(=O)(=O)CF)[C@@H]2Cc2cccc(-c3ccccc3)c2F)CCO1` [Compound 203, 1-fluoro-N-((6S,7S)-6-((2-fluoro-[1,1′-biphenyl]-3-yl)methyl)-5-((S)-2-methyloxetane-2-carbonyl)-5-azaspiro[2.4]heptan-7-yl)methanesulfonamide], under setting [1], the EC50 is 1 to 10 nM and the Emax lay in the range of 90 to 100%.
Turning to `O=C([C@H]1CCO1)N1CC2(CC2)[C@H](NS(=O)(=O)/C=C/F)[C@@H]1Cc1cccc(-c2ccccc2)c1F` [Compound 204, (E)-2-fluoro-N-((6S,7S)-6-((2-fluoro-[1,1′-biphenyl]-3-yl)methyl)-5-((R)-oxetane-2-carbonyl)-5-azaspiro[2.4]heptan-7-yl)ethene-1-sulfonamide], under setting [1], the EC50 is 10 to 100 nM and the Emax was 90 to 100%.
For `C[C@H](F)CNC(=O)N1CC2(CC2)[C@H](NS(=O)(=O)CF)[C@@H]1Cc1cccc(-c2ccccc2)c1F` [Compound 205], under setting [1], the EC50 is 1 to 10 nM and the Emax was 90 to 100%.
For the compound `C[C@@H](F)CNC(=O)N1CC2(CC2)[C@H](NS(=O)(=O)CF)[C@@H]1Cc1cccc(-c2ccccc2)c1F` [Compound 206, (6S,7S)-6-((2-fluoro-[1,1′-biphenyl]-3-yl)methyl)-7-((fluoromethyl)sulfonamido)-N—((R)-2-fluoropropyl)-5-azaspiro[2.4]heptane-5-carboxamide], the Emax was in the range of 90 to 100%. Also, the EC50 under setting [1] is 1 to 10 nM.
`O=C(NCCF)N1CC2(CC2)[C@H](NS(=O)(=O)C(F)F)[C@@H]1Cc1cccc(-c2ccccc2)c1F` [Compound 207, (6S,7S)-7-((difluoromethyl)sulfonamido)-6-((2-fluoro-[1,1′-biphenyl]-3-yl)methyl)-N-(2-fluoroethyl)-5-azaspiro[2.4]heptane-5-carboxamide]: under setting [1], the EC50 was 1 to 10 nM and the Emax is 90 to 100%.
Take `O=C(NCC(F)(F)F)N1CC2(CC2)[C@H](NS(=O)(=O)CF)[C@@H]1Cc1cc(F)cc(-c2ccccc2)c1F` [Compound 208, (6S,7S)-6-((2,5-difluoro-[1,1′-biphenyl]-3-yl)methyl)-7-((fluoromethyl)sulfonamido)-N-(2,2,2-trifluoroethyl)-5-azaspiro[2.4]heptane-5-carboxamide]: under setting [1], the EC50 is 0.0794 to 1 nM and the maximal response (Emax) lay in the range of 90 to 100%.
In the case of `C[C@@H](NC(=O)N1CC2(CC2)[C@H](NS(=O)(=O)CF)[C@@H]1Cc1cccc(-c2ccccc2)c1F)C(F)(F)F` [Compound 209, (6S,7S)-6-((2-fluoro-[1,1′-biphenyl]-3-yl)methyl)-7-((fluoromethyl)sulfonamido)-N-((R)-1,1,1-trifluoropropan-2-yl)-5-azaspiro[2.4]heptane-5-carboxamide], under setting [1], the EC50 is 0.0794 to 1 nM and the Emax is 90 to 100%.
The corresponding values for `CC(C)(O)C(=O)N1CC2(CC2)[C@H](NS(=O)(=O)CF)[C@@H]1Cc1cc(F)cc(-c2cccc(F)c2)c1F` [Compound 210, 1-fluoro-N-((6S,7S)-5-(2-hydroxy-2-methylpropanoyl)-6-((2,3′,5-trifluoro-[1,1′-biphenyl]-3-yl)methyl)-5-azaspiro[2.4]heptan-7-yl)methanesulfonamide] are 10 to 100 nM and 90 to 100%.
For `O=C(NCC(F)(F)F)N1CC2(CC2)[C@H](NS(=O)(=O)CF)[C@@H]1Cc1cccc(-c2ccccc2)c1F` [Compound 211, (6S,7S)-6-((2-fluoro-[1,1′-biphenyl]-3-yl)methyl)-7-((fluoromethyl)sulfonamido)-N-(2,2,2-trifluoroethyl)-5-azaspiro[2.4]heptane-5-carboxamide], under setting [1], the EC50 is 1 to 10 nM and the Emax lay within 90 to 100%.
On to `C[C@H](CF)NC(=O)N1CC2(CC2)[C@H](NS(=O)(=O)C(F)F)[C@@H]1Cc1cccc(-c2ccccc2)c1F` [Compound 212, (6S,7S)-7-((difluoromethyl)sulfonamido)-6-((2-fluoro-[1,1′-biphenyl]-3-yl)methyl)-N-((R)-I-fluoropropan-2-yl)-5-azaspiro[2.4]heptane-5-carboxamide], for which, under setting [1], the EC50 is 1 to 10 nM and the Emax lay in the range of 90 to 100%.
For `O=C([C@H]1CCO1)N1CC2(CC2)[C@H](NS(=O)(=O)C(F)F)[C@@H]1Cc1cccc(-c2cccc(F)c2)c1` [Compound 213, 1,1-difluoro-N-((6S,7S)-6-((3′-fluoro-[1,1′-biphenyl]-3-yl)methyl)-5-((R)-oxetane-2-carbonyl)-5-azaspiro[2.4]heptan-7-yl)methanesulfonamide], under setting [1], the EC50 was 1 to 10 nM and the Emax is 90 to 100%.
As to `O=C([C@H]1CCO1)N1CC2(CC2)[C@H](NS(=O)(=O)C(F)F)[C@@H]1Cc1cccc(-c2cc(F)cc(F)c2)c1` [Compound 214, N-((6S,7S)-6-((3′,5′-difluoro-[1,1′-biphenyl]-3-yl)methyl)-5-((R)-oxetane-2-carbonyl)-5-azaspiro[2.4]heptan-7-yl)-1,1-difluoromethanesulfonamide], under setting [1], the EC50 is 1 to 10 nM and the Emax lay in the range of 90 to 100%.
As for `COC1(CNC(=O)N2CC3(CC3)[C@H](NS(=O)(=O)C(F)F)[C@@H]2Cc2cccc(-c3ccccc3)c2F)CC1` [Compound 215, (6S,7S)-7-((difluoromethyl)sulfonamido)-6-((2-fluoro-[1,1′-biphenyl]-3-yl)methyl)-N-((1-methoxycyclopropyl)methyl)-5-azaspiro[2.4]heptane-5-carboxamide], under setting [1], the EC50 was 0.0794 to 1 nM and the Emax lay within 90 to 100%.
